Results as given in ChEMBL document CHEMBL1125989, “Preparation and evaluation of optically active 4,4-difluorothreonine as a potent novel antitumor material” (Bioorg Med Chem Lett, 1991).
Converted amounts (≈) assume the structure as drawn.

Tests used:
[1] = system: Mus musculus; assay: Tested for body weight of CDF1 mice bearing P388 leukemia at dose of 250 mg/kg/day on day 5; type: functional
[2] = system: Mus musculus; assay: Tested for body weight of CDF1 mice bearing P388 leukemia at dose of 20 mg/kg/day on day 5; type: functional
[3] = system: Mus musculus; assay: Tested for body weight of CDF1 mice bearing P388 leukemia at dose of 250 mg/kg/day on day 1; type: functional
[4] = system: Mus musculus; assay: Tested for body weight of CDF1 mice bearing P388 leukemia at dose of 100 mg/kg/day on day 1; type: functional
[5] = system: Mus musculus; assay: Tested for mean survival time of tested group to that of mean survival time of control group of mice bearing P388 leukemia at dose of 20 mg/kg/day; type: functional
[6] = system: Mus musculus; assay: Tested for body weight of CDF1 mice bearing P388 leukemia at dose of 100 mg/kg/day on day 5; type: functional
[7] = system: L1210; assay: Tested for the effect of stereochemistry on the growth of L1210 mouse leukemia cell line in vitro; type: functional, cell-based
[8] = system: Mus musculus; assay: Tested for mean survival time of tested group to that of mean survival time of control group of mice bearing P388 leukemia at dose of 100 mg/kg/day; type: functional
[9] = system: Mus musculus; assay: Tested for body weight of CDF1 mice bearing P388 leukemia at dose of 20 mg/kg/day on day 1; type: functional
[10] = system: Mus musculus; assay: Tested for mean survival time of tested group to that of mean survival time of control group of mice bearing P388 leukemia at dose of 250 mg/kg/day; type: functional
[11] = system: KB; assay: Concentration at 50 percent inhibition of cell growth against human cancer KB cell line in vitro; type: functional, cell-based
[12] = system: L1210; assay: Concentration at 50 percent inhibition of cell growth against mouse leukemia 1210 cell line in vitro; type: functional, cell-based
[13] = system: CCRF-CEM; assay: Concentration at 50 percent inhibition of cell growth against human leukemia CCRF CEM cell line in vitro; type: functional, cell-based
[14] = system: PC10; assay: Concentration at 50 percent inhibition of cell growth against human […] cell line in vitro; type: functional, cell-based
[15] = system: PC10; assay: Concentration at 50 percent inhibition of cell growth against human cancer PC10 cell line in vitro; type: functional, cell-based

C[C@H](O)[C@H](N)C(=O)O
Body weight [1]: 22 g
Body weight [2]: 22 g
Body weight [3]: 22.7 g
Body weight [4]: 21.3 g
T/C [5]: 114%
Body weight [6]: 21.7 g
IC50 [7]: 2.8 µg/mL (≈ 23.5 µM)
T/C [8]: 122%
Body weight [9]: 22 g
T/C [10]: 170%

NC(C(=O)O)C(O)C(F)F (racemic)
IC50 [11]: 2.7 µg/mL (≈ 17.4 µM)
IC50 [12]: 1.1 µg/mL (≈ 7.09 µM)
IC50 [13]: 1.7 µg/mL (≈ 11 µM)
IC50 [7]: 3.3 µg/mL (≈ 21.3 µM)
IC50 [14]: 5.1 µg/mL (≈ 32.9 µM)

C[C@@H](O)[C@@H](N)C(=O)O [D-allothreonine]
IC50 [7]: > 100 µg/mL

O=c1[nH]cc(F)c(=O)[nH]1 [FLUOROURACIL]
IC50 [11]: 12.1 µg/mL (≈ 93 µM)
IC50 [12]: 0.36 µg/mL (≈ 2.77 µM)
IC50 [13]: 0.95 µg/mL (≈ 7.3 µM)
IC50 [15]: 42 µg/mL (≈ 323 µM)
